Assay results from patent US9980943B2, “Methods of treating muscular dystrophy” (BOARD OF REGENTS OF THE NEVADA SYSTEM OF HIGHER EDUCATION, …, priority 2013, dated 2018).
Like-named read-outs stand apart in the source and are kept apart here.

Test system: α7 integrin (LacZ reporter in α7LacZ+/− myoblasts)
Experiment: qHTS of the LOPAC library and MLSMR (online screen, α7LacZ+/− myoblasts)
Settings: for activation at 0.307 µM / activation at 1.53 µM / activation at 7.66 µM / activation at 38.3 µM / Emax / EC50: Mus musculus, Myoblast; for activation at 0.307 µM: read-out: Activity at 0.307 uM [%] **; for activation at 1.53 µM: read-out: Activity at 1.530 uM [%] **; for activation at 7.66 µM: read-out: Activity at 7.660 uM [%] **; for activation at 38.3 µM: read-out: Activity at 38.30uM [%] **; for EC50: read-out: Fit LogAC50 (converted); for Score: Table 8 Compound data
[1] = 48 h, read-out: Fit Infinite Activity [%]

| Compound | activation at 0.307 µM (48 h) [%] | activation at 1.53 µM (48 h) [%] | activation at 7.66 µM (48 h) [%] | activation at 38.3 µM (48 h) [%] | Emax [1] [%] | EC50 [µM] | Emax (read-out: Max Response [%]) [%] | Score | Curve Description |
| --- | --- | --- | --- | --- | --- | --- | --- | --- | --- |
| O=C(Nc1cc(Br)ccc1O)C1CC(c2ccccc2Cl)=NO1 (stereo not shown) [Compound 108] | 2.03 | 3.14 | 15.3 | 141 | 142 | 12.6 | 141 |  |  |
| COc1ccc2oc(C[S+]([O-])c3ccccc3)c(C(=O)O)c2c1 (stereo not shown) [Compound 109] | 5.2 | 10.1 | 20.9 | 174 | 174 | 12.6 | 174 |  |  |
| Oc1c(Br)cc(Br)cc1CNc1cccc2cccnc12 [Compound 110] | -18.9 | -17.9 | 0 | 161 | 163 | 12.6 | 161 | 43 |  |
| CCCCS(=O)(=O)N1CCCC(C(=O)NCCc2ccccc2)C1 (stereo not shown) [Compound 111] | 4.12 | 15.4 | 54.6 | 89.9 | 101 | 7.08 | 89.9 |  |  |
| O=[N+]([O-])c1ccc(Cl)cc1N/N=C/c1ccncc1 [Compound 112] | 0 | 1.53 | 54 | 73.8 | 74 | 5.62 | 73.8 | 43 |  |
| NC(=O)c1cccnc1Oc1ccc(Cl)cc1Cl [Compound 113] | -4.94 | -7.73 | 23.5 | 105 | 106 | 10 | 105 |  |  |
| Cc1ccc(NC(=O)C2CCCCC2C(=O)O)cc1C (stereo not shown) [Compound 114] | -6.72 | -1.25 | 17.2 | 135 | 135 | 11.2 | 135 |  |  |
| CCOc1ccc2oc(C(=O)OCC(=O)NC(=O)NC)c(C)c2c1 [Compound 115] | -3.94 | 0 | 40.2 | 77.6 | 80.7 | 7.08 | 77.6 |  |  |
| CN(C)S(=O)(=O)c1ccc(C(=O)Nc2nc3ccccc3[nH]2)cc1 [Compound 116] | -9.1 | -3.94 | 36.7 | 84.9 | 94.8 | 8.91 | 84.9 |  |  |
| NC1=Nc2cccc3cccc1c23 [Compound 117] | 0 | 5.07 | 43.6 | 82.2 | 88.8 | 7.94 | 82.2 |  |  |
| C/N=c1\scc(-c2ccc(OC)cc2)n1/N=C(\C)c1cccnc1 [Compound 118] | -8.12 | 2.29 | 48.7 | 73.6 | 74.9 | 5.01 | 73.6 |  |  |
| O=C(COC(=O)Cn1cnc2ccccc21)Nc1cccc([N+](=O)[O-])c1 [Compound 119] | -17.1 | -14.7 | 0.628 | 112 | 112 | 11.2 | 112 |  |  |
| Cc1ccc(CNc2ncnc(N)c2[N+](=O)[O-])cc1 [Compound 120] | 17.8 | 33.8 | 63.4 | 97.4 | 127 | 10 | 97.4 |  |  |
| CN(C)/C=N/c1nccc(-c2cccs2)n1 [Compound 121] | 6.86 | 8.46 | 45 | 92.6 | 97.8 | 8.91 | 92.6 |  |  |
| Cc1cc(N2CCOCC2)nc2ccc(N/C(S)=N/Cc3ccc4c(c3)OCO4)cc12 [Compound 122] | 2.5 | 11.5 | 54 | 107 | 128 | 10 | 107 |  |  |
| COCCN1C=C(C(=O)OC)C(c2ccccc2Cl)C(C(=O)OC)=C1 [Compound 123] | 5.12 | 12.1 | 45.1 | 85.5 | 96.9 |  | 85.5 |  |  |
| O=C(NCCCn1ccnc1)/C(=C/c1cccs1)NC(=O)c1ccco1 [Compound 124] | -19.2 | -7.39 | 35.5 | 85.9 | 103 |  | 85.9 |  |  |
| N=C(NOC(=O)COc1cc(Cl)c(Cl)cc1Cl)c1ccncc1 [Compound 125] | 0 | 9.26 | 50.4 | 108 | 134 |  | 108 |  |  |

| Compound | activation at 0.307 µM (48 h) [%] | activation at 1.53 µM (48 h) [%] | activation at 7.66 µM (48 h) [%] | activation at 38.3 µM (48 h) [%] | Emax [1] [%] | EC50 [µM] | Emax (read-out: Max Response [%]) [%] | Score | Curve Description |
| --- | --- | --- | --- | --- | --- | --- | --- | --- | --- |
| Cc1ccc(-c2csc(Nc3ccc(C(=O)O)cc3)[n+]2Cc2ccccc2)cc1 [Compound 126] | 5.18 | 19 | 58.1 | 102 | 125 |  | 102 |  |  |
| Cc1cc(-c2ccccc2)n2nc(N)nc2n1 [Compound 127] | -20 | -16.1 | -2.95 | 151 | 152 |  | 151 |  |  |
| O=C(N/N=C/c1cn[nH]c1-c1ccc(F)cc1)c1ccncc1 [Compound 128] | 17.3 | 12.6 | 22.6 | 152 | 154 |  | 152 |  |  |
| CC(/C=C(\O)c1ccccc1)=N\c1ccc(Br)c(Cl)c1 [Compound 130] | 7.18 | 9.18 | 26.1 | 127 | 128 |  | 127 |  |  |
| Cc1ccc(NC(=O)COc2ccccc2CNC(C)(C)CC(C)(C)C)cc1 [Compound 131] | 10.7 | 7.12 | 16.2 | 182 | 184 |  | 182 |  |  |
| Cc1nc2c([nH]1)OC(N)=C(C#N)C21CCN(Cc2ccccc2)CC1 [Compound 132] | 11.1 | 13.8 | 23 | 133 | 133 |  | 133 |  | Partial |
| O=C(CSc1nnc(C2CC2)n1C1CC1)c1cccs1 [Compound 133] | -26 | -28.4 | 5.99 | 70.2 | 73.1 | 10 | 70.2 |  |  |
| CSc1ncccc1C(=O)OCC(=O)c1cc(C)n(C)c1C [Compound 134] | -21 | -23.9 | -0.0686 | 72.9 | 72.9 | 10 | 72.9 |  |  |
| CCc1c(C2(O)CCCCC2)[nH]c2ncccc12 [Compound 135] | -28.5 | -29.4 | -11.2 | 62 | 61.8 | 10 | 62 |  |  |
| O=C(Nc1ccc(S(=O)(=O)Nc2nccs2)cc1)c1ccccc1OC(F)F [Compound 137] | -19.2 | -19.4 | -1.67 | 61.8 | 61.7 | 10 | 61.8 |  |  |
| O=C1CCc2cc(S(=O)(=O)Nc3ccc(C(F)(F)F)cc3)cc3c2N1CC3 [Compound 138] | -26.1 | -19.1 | 23.6 | 85.8 | 108 |  | 85.8 |  |  |
| COc1ccccc1C(=O)NCC(=O)/N=N/c1c(O)n(C(C)C)c2ccccc12 [Compound 139] | 15.2 | 14.6 | 25 | 81.7 | 82 |  | 81.7 |  |  |
| Cn1ccc(C(=O)Nc2cccnc2Cl)n1 [Compound 140] | -2.76 | -4.96 | 22.8 | 76 | 77.9 | 10 | 76 |  |  |
| COC(=O)c1ccc(C2C(C(=O)c3cc4ccccc4o3)=C(O)C(=O)N2CCN2CCOCC2)cc1 (stereo not shown) [Compound 141] | -17.2 | -18.3 | 2.6 | 82.7 | 82.8 | 10 | 82.7 |  |  |
| COc1cc(NC(=O)C2C3C=CC(C3)C2C(=O)O)ccc1NC(=O)c1ccccc1 (stereo not shown) [Compound 142] | -17.1 | -18.7 | 16.8 | 68.9 | 71.2 |  | 68.9 |  |  |
| COCc1c(C(=O)N/N=C(\C)c2ccc(OCc3ccccc3)cc2)nnn1-c1nonc1N [Compound 143] | 4.28 | 4.88 | 22.4 | 80.8 | 81.3 | 10 | 80.8 |  |  |
| O=C(Nc1ccc(N2CCN(C(=O)c3ccccc3F)CC2)cc1)c1cncc(Br)c1 [Compound 144] | 8.54 | 11.1 | 20.4 | 103 | 104 |  | 103 |  |  |
